Results: patent US6770596B1, “Fused tricyclic compounds, process for their preparation, and herbicidal compositions containing them” (Ishihara Sangyo Kaisha Ltd., priority 2002, dated 2004)

Experiments:
Assay type in all cases: in vivo
[1] = test system: field corn (Zea mays L., var. Dekalb 535, CORN); assay: Post-emerge test, crop damage field corn; conditions: post-emerge, 250 g ai/ha, 14 days after application, rating scale 0-100 (0 no damage, 100 complete death)
From the text: (§1) A standard greenhouse herbicide activity screening system was used to evaluate the herbicidal efficacy and crop safety of these test compounds. Seven broadleaf weed species including redroot pigweed (Amaranthus retroflexus, AMR), velvetleaf (Abutilon theophrasti, ABT), sicklepod (Cassia obtusifolia, CAO), ivyleaf morningglory (Ipomoea hederacea, IPH), lambsquarters (Chenopodium album, CHA), common ragweed (Ambrosia artemisiifolia L., AML), and cocklebur (Xanthium strumariunt, XAS) were used as test species. Four grass weed species including green foxtail (Setaria viridis, SEV), barnyardgrass (Echinachloa crus-galli, ECC), johnsongrass (Sorghum halepense, SOH), and large crabgrass (Digitaria sanguinalis, DIS) were also used. In addition, four crop species, field corn (Zea mays L., var. Dekalb 535, CORN), soybean (Glycine max L., var. Pella 86, SOY), upland rice (Oryza sp., var.Tebonnet, RICE), and wheat (Triticum aestivum) were included all plants were grown in 10 cm square plastic pots which were filled with a sandy loam soil mix.
(§2) For pre-emerge tests, seeds were planted one day prior to application of the test compounds. All test compounds were dissolved in acetone and applied to the test pots in a volume of 187 l/ha. Test materials were applied at rates ranging from 8 g ai/ha to 1000 g ai/ha using a track sprayer equipped with a TJ8001E even flow flat fan spray nozzle. This application simulates a typical commercial field herbicide application.
(§3) For post-emerge tests, seeds were planted 8-21 days prior to the test to allow emergence and good foliage development prior to application of the test substances. At the time of the post-emerge application, plants of all species were usually at the 2-3 leaf stage of development. In the postemerge test, a commercial non-ionic surfactant was also included (0.25% v/v) to enhance wetting of the leaf surfaces of target plants.
(§4) At 14 days after application of the test materials, phytotoxicity ratings were recorded. A rating scale of 0-100 was used for both pre and post emerge tests as previously described in Research Methods in Weed Science, 2nd edition, B, Truelove, Ed., Southern Weed Science Society, Auburn University, Auburn, Ala., 1977. Briefly, “0” corresponds to no damage and “100” corresponds to complete death of all plants in the test unit. This scale was used both to determine efficacy against weed species and damage to crop species. Herbicide activity data for various compounds of this invention, which are shown by compound No. in Tables 1-3, are shown in Tables 5 and 6.

[2] = test system: redroot pigweed (Amaranthus retroflexus, AMR); assay: Pre-emerge test, redroot pigweed; conditions: 250 g ai/ha, 14 days after application, rating scale 0-100 (0 no damage, 100 complete death)
From the text: as §1, §2, §4

[3] = test system: ivyleaf morningglory (Ipomoea hederacea, IPH); assay: Pre-emerge test, ivyleaf morningglory; conditions: 250 g ai/ha, 14 days after application, rating scale 0-100 (0 no damage, 100 complete death)
From the text: as §1, §2, §4

[4] = test system: large crabgrass (Digitaria sanguinalis, DIS); assay: Post-emerge test, large crabgrass; conditions: 250 g ai/ha, 14 days after application, rating scale 0-100 (0 no damage, 100 complete death)
From the text: as §1, §2, §3, §4

[5] = test system: green foxtail (Setaria viridis, SEV); assay: Pre-emerge test, green foxtail; conditions: 250 g ai/ha, 14 days after application, rating scale 0-100 (0 no damage, 100 complete death)
From the text: as §1, §2, §4

[6] = test system: common ragweed (Ambrosia artemisiifolia L., AML); assay: Pre-emerge test, common ragweed; conditions: 250 g ai/ha, 14 days after application, rating scale 0-100 (0 no damage, 100 complete death)
From the text: as §1, §2, §4

[7] = test system: soybean (Glycine max L., var. Pella 86, SOY); assay: Pre-emerge test, crop damage soybean; conditions: pre-emerge, 250 g ai/ha, 14 days after application, rating scale 0-100 (0 no damage, 100 complete death)
From the text: as §1, §2, §4

[8] = test system: green foxtail (Setaria viridis, SEV); assay: Post-emerge test, green foxtail; conditions: 250 g ai/ha, 14 days after application, rating scale 0-100 (0 no damage, 100 complete death)
From the text: as §1, §2, §3, §4

[9] = test system: redroot pigweed (Amaranthus retroflexus, AMR); assay: Post-emerge test, redroot pigweed; conditions: 250 g ai/ha, 14 days after application, rating scale 0-100 (0 no damage, 100 complete death)
From the text: as §1, §2, §3, §4

[10] = test system: sicklepod (Cassia obtusifolia, CAO); assay: Post-emerge test, sicklepod; conditions: 250 g ai/ha, 14 days after application, rating scale 0-100 (0 no damage, 100 complete death)
From the text: as §1, §2, §3, §4

[11] = test system: johnsongrass (Sorghum halepense, SOH); assay: Post-emerge test, johnsongrass; conditions: 250 g ai/ha, 14 days after application, rating scale 0-100 (0 no damage, 100 complete death)
From the text: as §1, §2, §3, §4

[12] = test system: common ragweed (Ambrosia artemisiifolia L., AML); assay: Post-emerge test, common ragweed; conditions: 250 g ai/ha, 14 days after application, rating scale 0-100 (0 no damage, 100 complete death)
From the text: as §1, §2, §3, §4

[13] = test system: wheat (Triticum aestivum); assay: Pre-emerge test, crop damage wheat; conditions: pre-emerge, 250 g ai/ha, 14 days after application, rating scale 0-100 (0 no damage, 100 complete death)
From the text: as §1, §2, §4

[14] = test system: wheat (Triticum aestivum); assay: Post-emerge test, crop damage wheat; conditions: post-emerge, 250 g ai/ha, 14 days after application, rating scale 0-100 (0 no damage, 100 complete death)
From the text: as §1, §2, §3, §4

[15] = test system: soybean (Glycine max L., var. Pella 86, SOY); assay: Post-emerge test, crop damage soybean; conditions: post-emerge, 250 g ai/ha, 14 days after application, rating scale 0-100 (0 no damage, 100 complete death)
From the text: as §1, §2, §3, §4

[16] = test system: field corn (Zea mays L., var. Dekalb 535, CORN); assay: Pre-emerge test, crop damage field corn; conditions: pre-emerge, 250 g ai/ha, 14 days after application, rating scale 0-100 (0 no damage, 100 complete death)
From the text: as §1, §2, §4

[17] = test system: barnyardgrass (Echinachloa crus-galli, ECC); assay: Post-emerge test, barnyardgrass; conditions: 250 g ai/ha, 14 days after application, rating scale 0-100 (0 no damage, 100 complete death)
From the text: as §1, §2, §3, §4

[18] = test system: ivyleaf morningglory (Ipomoea hederacea, IPH); assay: Post-emerge test, ivyleaf morningglory; conditions: 250 g ai/ha, 14 days after application, rating scale 0-100 (0 no damage, 100 complete death)
From the text: as §1, §2, §3, §4

[19] = test system: velvetleaf (Abutilon theophrasti, ABT); assay: Pre-emerge test, velvetleaf; conditions: 250 g ai/ha, 14 days after application, rating scale 0-100 (0 no damage, 100 complete death)
From the text: as §1, §2, §4

[20] = test system: upland rice (Oryza sp., var.Tebonnet, RICE); assay: Post-emerge test, crop damage upland rice; conditions: post-emerge, 250 g ai/ha, 14 days after application, rating scale 0-100 (0 no damage, 100 complete death)
From the text: as §1, §2, §3, §4

[21] = test system: lambsquarters (Chenopodium album, CHA); assay: Pre-emerge test, lambsquarters; conditions: 250 g ai/ha, 14 days after application, rating scale 0-100 (0 no damage, 100 complete death)
From the text: as §1, §2, §4

[22] = test system: upland rice (Oryza sp., var.Tebonnet, RICE); assay: Pre-emerge test, crop damage upland rice; conditions: pre-emerge, 250 g ai/ha, 14 days after application, rating scale 0-100 (0 no damage, 100 complete death)
From the text: as §1, §2, §4

[23] = test system: velvetleaf (Abutilon theophrasti, ABT); assay: Post-emerge test, velvetleaf; conditions: 250 g ai/ha, 14 days after application, rating scale 0-100 (0 no damage, 100 complete death)
From the text: as §1, §2, §3, §4

[24] = test system: cocklebur (Xanthium strumariunt, XAS); assay: Pre-emerge test, cocklebur; conditions: 250 g ai/ha, 14 days after application, rating scale 0-100 (0 no damage, 100 complete death)
From the text: as §1, §2, §4

[25] = test system: large crabgrass (Digitaria sanguinalis, DIS); assay: Pre-emerge test, large crabgrass; conditions: 250 g ai/ha, 14 days after application, rating scale 0-100 (0 no damage, 100 complete death)
From the text: as §1, §2, §4

[26] = test system: barnyardgrass (Echinachloa crus-galli, ECC); assay: Pre-emerge test, barnyardgrass; conditions: 250 g ai/ha, 14 days after application, rating scale 0-100 (0 no damage, 100 complete death)
From the text: as §1, §2, §4

[27] = test system: lambsquarters (Chenopodium album, CHA); assay: Post-emerge test, lambsquarters; conditions: 250 g ai/ha, 14 days after application, rating scale 0-100 (0 no damage, 100 complete death)
From the text: as §1, §2, §3, §4

[28] = test system: johnsongrass (Sorghum halepense, SOH); assay: Pre-emerge test, johnsongrass; conditions: 250 g ai/ha, 14 days after application, rating scale 0-100 (0 no damage, 100 complete death)
From the text: as §1, §2, §4

[29] = test system: sicklepod (Cassia obtusifolia, CAO); assay: Pre-emerge test, sicklepod; conditions: 250 g ai/ha, 14 days after application, rating scale 0-100 (0 no damage, 100 complete death)
From the text: as §1, §2, §4

[30] = test system: cocklebur (Xanthium strumariunt, XAS); assay: Post-emerge test, cocklebur; conditions: 250 g ai/ha, 14 days after application, rating scale 0-100 (0 no damage, 100 complete death)
From the text: as §1, §2, §3, §4

Compound	Post-emerge crop damage CORN (phytotoxicity rating) [1]	Pre-emerge Herbicidal Activity AMR (phytotoxicity rating) [2]	Pre-emerge Herbicidal Activity IPH (phytotoxicity rating) [3]	Post-emerge Herbicidal Activity DIS (phytotoxicity rating) [4]	Pre-emerge Herbicidal Activity SEV (phytotoxicity rating) [5]	Pre-emerge Herbicidal Activity AML (phytotoxicity rating) [6]	Pre-emerge crop damage SOY (phytotoxicity rating) [7]	Post-emerge Herbicidal Activity SEV (phytotoxicity rating) [8]	Post-emerge Herbicidal Activity AMR (phytotoxicity rating) [9]	Post-emerge Herbicidal Activity CAO (phytotoxicity rating) [10]	Post-emerge Herbicidal Activity SOH (phytotoxicity rating) [11]	Post-emerge Herbicidal Activity AML (phytotoxicity rating) [12]	Pre-emerge crop damage WHEAT (phytotoxicity rating) [13]	Post-emerge crop damage WHEAT (phytotoxicity rating) [14]	Post-emerge crop damage SOY (phytotoxicity rating) [15]	Pre-emerge crop damage CORN (phytotoxicity rating) [16]	Post-emerge Herbicidal Activity ECC (phytotoxicity rating) [17]	Post-emerge Herbicidal Activity IPH (phytotoxicity rating) [18]	Pre-emerge Herbicidal Activity ABT (phytotoxicity rating) [19]	Post-emerge crop damage RICE (phytotoxicity rating) [20]	also measured
CC1Oc2cc(F)c(-c3nn(C)c(OC(F)F)c3Cl)c3c2N(C1=O)C(C)C(=O)N3 (mixture of isomers) [1-57]	10	100	100	10	100	100	50	99	100	100	40	80	35	50	100	50	80	100	100	65	Pre-emerge Herbicidal Activity CHA (phytotoxicity rating) [21]: 100; Pre-emerge crop damage RICE (phytotoxicity rating) [22]: 65; Post-emerge Herbicidal Activity ABT (phytotoxicity rating) [23]: 100; Pre-emerge Herbicidal Activity XAS (phytotoxicity rating) [24]: 95; Pre-emerge Herbicidal Activity DIS (phytotoxicity rating) [25]: 100; Pre-emerge Herbicidal Activity ECC (phytotoxicity rating) [26]: 100; Post-emerge Herbicidal Activity CHA (phytotoxicity rating) [27]: 100; Pre-emerge Herbicidal Activity SOH (phytotoxicity rating) [28]: 100; Pre-emerge Herbicidal Activity CAO (phytotoxicity rating) [29]: 100; Post-emerge Herbicidal Activity XAS (phytotoxicity rating) [30]: 100
Cn1c(C(F)(F)F)cc(=O)n(-c2c(F)cc3c4c2NC(=O)CN4C(=O)CO3)c1=O [1-1, 8-[1-methyl-6-(trifluoromethyl)-2,4-(1H, 3H)-pyrimidinedione-3-yl]-9-fluoro-5H-pyrazino[1,2,3-de]-1,4-benzoxazine-3,6-(2H, 7H)-dione]	0	100	100	0	100	100	100	95	100	40	25	65	100	25	95	100	60	100	100	99	Pre-emerge Herbicidal Activity CHA (phytotoxicity rating) [21]: 100; Pre-emerge crop damage RICE (phytotoxicity rating) [22]: 100; Post-emerge Herbicidal Activity ABT (phytotoxicity rating) [23]: 100; Pre-emerge Herbicidal Activity XAS (phytotoxicity rating) [24]: 99; Pre-emerge Herbicidal Activity DIS (phytotoxicity rating) [25]: 100; Pre-emerge Herbicidal Activity ECC (phytotoxicity rating) [26]: 100; Post-emerge Herbicidal Activity CHA (phytotoxicity rating) [27]: 98; Pre-emerge Herbicidal Activity SOH (phytotoxicity rating) [28]: 100; Pre-emerge Herbicidal Activity CAO (phytotoxicity rating) [29]: 100; Post-emerge Herbicidal Activity XAS (phytotoxicity rating) [30]: 100
CC1C(=O)Nc2c3c(cc(F)c2-n2c(=O)cc(C(F)(F)F)n(C)c2=O)OCC(=O)N31 (stereo not drawn) [1-2]	10	100	100	0	100	100	99	60	90	0	20	65	100	25	50	100	60	90	100	70	Pre-emerge Herbicidal Activity CHA (phytotoxicity rating) [21]: 100; Pre-emerge crop damage RICE (phytotoxicity rating) [22]: 100; Post-emerge Herbicidal Activity ABT (phytotoxicity rating) [23]: 100; Pre-emerge Herbicidal Activity XAS (phytotoxicity rating) [24]: 99; Pre-emerge Herbicidal Activity DIS (phytotoxicity rating) [25]: 100; Pre-emerge Herbicidal Activity ECC (phytotoxicity rating) [26]: 100; Post-emerge Herbicidal Activity CHA (phytotoxicity rating) [27]: 80; Pre-emerge Herbicidal Activity SOH (phytotoxicity rating) [28]: 100; Pre-emerge Herbicidal Activity CAO (phytotoxicity rating) [29]: 99; Post-emerge Herbicidal Activity XAS (phytotoxicity rating) [30]: 75
